# Marks after values point to notes of the source that are not given here.
# Assays:
# [1] = system: Human HaCat keratinocytes; assay: Stimulation of keratinocyte proliferation (Hoescht DNA labeling); assay type: cell-based; settings: 14 days; for Keratinocyte proliferation vs. control cell proliferation: n = 3
# Description: The stimulation of cell growth can be readily measured by uptake of a fluorescent probe that intercalates between DNA bases (Hoescht method). There is a proportional relationship between the quantity of fluorescent DNA taken up and the number of cells. […] Cells and products were incubated during 14 days (37° C./5% CO2), the mediums being renewed at regular intervals. Then lawns were rinsed and broke before being labeled by means of the colouring agent inserting of the DNA HOESCHT 33258. The intensity of the labeling is proportional to the quantity of DNA of the cellular samples. A curve of calibration allows to correlate the intensity of the labeling to the number of cells.
# keratin K10 = assay: Synthesis of keratin 10 by keratinocytes (fluorescence image analysis); assay type: cell-based, human; settings: 14 days; for Synthesis of keratin 10, Fluorescence: HaCat, calcium-poor medium
# Description: HaCat cells were cultured in the presence or absence of hydroxymethionine-Ca, 3-aminopropanesulfonic Acid alone, and both compounds in a calcium-poor culture medium for 14 days. The incubation time was rather long to enable the keratinocytes to pursue differentiation up to a late stage, thus enabling detection of the emergence of keratin K10. Quantification was conducted by fluorescence image analysis using 1 specific fluorescent probe (anti-keratin monoclonal antibody (Monosan) for keratin K10).
# filaggrin = assay: Filaggrin synthesis by keratinocytes (fluorescence-image analysis); assay type: cell-based, human; settings: for Filaggrin synthesis, Fluorescence: Table 3, HaCat; for Filaggrin synthesis, Fluorescence / Filaggrin synthesis, Fluorescence, result per 106 cells: calcium-deficient medium; for Filaggrin synthesis, Fluorescence / Filaggrin synthesis, Fluorescence, result per 106 cells / increase in filaggrin synthesis on the control value: 14 days; for Filaggrin synthesis, Fluorescence, result per 106 cells: Table 2, HaCat
# Description: HaCat cells were cultured to confluence, in a deficient medium in calcium, in the presence or absence of hydroxymethionine-Ca for 14 days. The culture period was rather long in order to enable the keratinocytes to pursue differentiation up to a rather late stage in order to detect the emergence of filaggrin. Quantification was conducted by fluorescence-image analysis after labeling filaggrin with a specific probe (polyclonal antibody, Santa-Cruz). […]
# Keratinocytes = assay: Osmolar protection: cell vitality by MTT after hyperosmotic stress; assay type: cell-based; settings: D-Sorbitol 200 mM, 0.06%
# Description: Keratinocytes were cultured in an appropriate culture medium. Then, cells were exposed to hyperosmolar shock induced by D-Sorbitol 200 mM. […] The osmoprotector effect of the products is estimated by quantifying the cellular survival. MTT Method is used: the measure of the survival is made at T0, T24 h and T48 h after the beginning of the stress. An analysis of the variances is realized on the data. In case of identity of the variances, a test of Student for matched series is then realized on the averages.
# HaCat cells = assay: Intracellular lipid synthesis (red oil staining of lipid vesicles); assay type: cell-based, human; settings: 14 days; for Formation of lipid vesicles, Red-oil staining, result per 106 cells: HaCat
# Description: The intracellular lipid vesicles characterize a late phase of differentiation. HaCat cells were cultured in the presence or absence of hydroxymethionine-Ca for 14 days. The incubation duration was rather long in order to enable the keratinocytes to pursue differentiation up to a relatively late stage.
# Quantification was conducted by image analysis after red oil staining of the lipid vesicles.
# [2] = system: Normal Human Keratinocyte (KHN) cells; assay: Genes expression profile by DNA array on human keratinocyte culture; assay type: cell-based
# Description: The genes expression profile modulated by hydroxymethionine was studied on human keratinocyte culture, cultured in the presence or absence of hydroxymethionine-Ca by DNA array studies allowing the detection of the main genes.
# Normal Human Keratinocyte (KHN) cells were cultured to confluence before receiving 5×10E-3% hydroxymethionine or 5×10E-2% hydroxymethionine diluted in the culture medium. The negative controls are medium without hydroxymethionine. The KHN were incubated (37° C./5% CO2) at different times before that the culture was stopped to allow the extraction of the total RNA. Then, the quantitation of the mRNA of interest is allowed by the use of ADN biochip and quantified by means of software of interpretations of the fluorescent signals recorded by the sensors.
# transglutaminase = assay: Transglutaminase mRNA by quantitative RT-PCR; assay type: cell-based, human; settings: 8 days; for Transglutaminase mRNA, Ct, result per 106 cells: HaCat
# Description: HaCat cells were cultured in the presence or absence of hydroxymethionine-Ca for 8 days. The quantitative RT-PCR method used on the mRNA for transglutaminase is sensitive and yielded results as of 8 days of culture. Quantification consisted in analysis of the cycle threshold (Ct) parameter, which reflects the amplification power used to obtain a detectable signal.
# Amplification is exponantial and of order 1.7 (recopying effectiveness for each cycle).
# [3] = concentration 0.02% (mix: each)
# [4] = concentration 0.05% (mix: each)
smiles,measurement,setting,value
NCCCS(=O)(=O)O [3-aminopropanesulfonic acid],effect on cell proliferation,[1]; 0.02% and 0.05%,no stimulant effect
same,Keratinocyte proliferation vs. control cell proliferation,[1]; [3],0%
same,Keratinocyte proliferation vs. control cell proliferation,[1]; [4],0%
same,"differentiating effect, keratin 10",keratin K10,devoid of differentiating effect
same,"Synthesis of keratin 10, Fluorescence",keratin K10; 0.02%,0.1 +/− 0.05 arbitrary unit
same,"Synthesis of keratin 10, Fluorescence",keratin K10; 0.05%,<0.1 arbitrary unit
same,"Synthesis of keratin 10, Fluorescence",keratin K10; 0.06%,0.1 +/− 0.06 arbitrary unit
same,"Filaggrin synthesis, Change (%) vs control","filaggrin; Table 3, 14 days, 0.02%",0.8 X
same,"Filaggrin synthesis, Change (%) vs control","filaggrin; Table 3, 14 days, 0.05%",X 1
same,"Filaggrin synthesis, Change (%) vs control","filaggrin; Table 3, 14 days, 0.06%",0.8 X
same,"Filaggrin synthesis, Fluorescence",filaggrin; 0.02%,1.2 +/− 0.6 arbitrary unit
same,"Filaggrin synthesis, Fluorescence",filaggrin; 0.05%,1.5 +/− 0.7 arbitrary unit
same,"Filaggrin synthesis, Fluorescence",filaggrin; 0.06%,1.2 +/− 0.6 arbitrary unit
same,Variation of the number of cells with regard to the control after a hyperosmotic stress (MTT),Keratinocytes; T0,+8%
same,Variation of the number of cells with regard to the control after a hyperosmotic stress (MTT),Keratinocytes; T24 h,+180%
same,Variation of the number of cells with regard to the control after a hyperosmotic stress (MTT),Keratinocytes; T48 h,+247%
"CSCCC(O)C(=O)O (centres unmarked) [Hydroxymethionine-Ca (AHMC), 2-hydroxy-4-(thiomethyl)butanoic acid]","Formation of lipid vesicles, Change (%) vs control",HaCat cells; 0.015%,+77%
same,"Formation of lipid vesicles, Change (%) vs control",HaCat cells; 0.03%,+58%
same,"Formation of lipid vesicles, Change (%) vs control",HaCat cells; 0.06%,+66%
same,"Formation of lipid vesicles, Red-oil staining, result per 106 cells",HaCat cells; 0.015%,2.8 ± 0.3 arbitrary unit
same,"Formation of lipid vesicles, Red-oil staining, result per 106 cells",HaCat cells; 0.03%,2.5 ± 0.7 arbitrary unit
same,"Formation of lipid vesicles, Red-oil staining, result per 106 cells",HaCat cells; 0.06%,2.6 ± 0.6 arbitrary unit
same,Keratinocyte proliferation vs. control cell proliferation,[1]; [3],223%
same,Keratinocyte proliferation vs. control cell proliferation,[1]; [4],170%
same,properties shown by the gene expression study,[2],"proliferative, pro-differentiation and proteinogenic properties but also DNA repairing properties"
same,activation of the gene HK2 involved in the proliferation,[2]; 5×10E-3% or 5×10E-2%,marked activation
same,activation of the gene endothelin 1 involved in the cellular differentiation,[2]; 5×10E-3% or 5×10E-2%,marked activation
same,activity of the gene CACNA1C (subunit alpha 1 of the voltage-dependent calcium channel),[2]; 5×10E-3% or 5×10E-2%,increased activity
same,activity of the gene for RYR (ryanodine receptor),[2]; 5×10E-3% or 5×10E-2%,increased activity
same,"differentiation activities (ornithine decarboxylase, keratins, involucrin, intermediate filaments, claudin genes)",[2]; 5×10E-3% or 5×10E-2%,strongly expressed
same,gene TGD (thymidine DNA glycolase),[2]; 5×10E-3% or 5×10E-2%,activated
same,"Synthesis of keratin 10, Change vs control",keratin K10; 0.02%,X 45
same,"Synthesis of keratin 10, Change vs control",keratin K10; 0.05%,X 57
same,"Synthesis of keratin 10, Change vs control",keratin K10; 0.06%,X 44
same,"Synthesis of keratin 10, Fluorescence",keratin K10; 0.02%,4.0 arbitrary unit
same,"Synthesis of keratin 10, Fluorescence",keratin K10; 0.05%,5.1 +/− 1.3 arbitrary unit
same,"Synthesis of keratin 10, Fluorescence",keratin K10; 0.06%,3.9 +/− 1.7 arbitrary unit
same,"Filaggrin synthesis, Change (%) vs control","filaggrin; Table 2, 14 days, 0.015%",+379%
same,"Filaggrin synthesis, Change (%) vs control","filaggrin; Table 2, 14 days, 0.03%",+1072%
same,"Filaggrin synthesis, Change (%) vs control","filaggrin; Table 2, 14 days, 0.06%",+943%
same,"Filaggrin synthesis, Fluorescence, result per 106 cells",filaggrin; 0.015%,1.9 ± 1.4 arbitrary unit
same,"Filaggrin synthesis, Fluorescence, result per 106 cells",filaggrin; 0.03%,4.6 ± 3.1 arbitrary unit
same,"Filaggrin synthesis, Fluorescence, result per 106 cells",filaggrin; 0.06%,4.1 ± 3.5 arbitrary unit
same,"Filaggrin synthesis, Change (%) vs control","filaggrin; Table 3, 14 days, 0.02%",3.3 X
same,"Filaggrin synthesis, Change (%) vs control","filaggrin; Table 3, 14 days, 0.05%",3.4 X
same,"Filaggrin synthesis, Change (%) vs control","filaggrin; Table 3, 14 days, 0.06%",2.7 X
same,"Filaggrin synthesis, Fluorescence",filaggrin; 0.02%,5.0 arbitrary unit
same,"Filaggrin synthesis, Fluorescence",filaggrin; 0.05%,5.2 arbitrary unit
same,"Filaggrin synthesis, Fluorescence",filaggrin; 0.06%,4.2 arbitrary unit
same,increase in filaggrin synthesis on the control value,filaggrin; concentration equivalent to 0.06%,≤ 10 fold
same,increase in filaggrin synthesis on the control value,filaggrin; lowest concentration,3.7 fold
same,production of filaggrine,"filaggrin; used concentrations, 14 days after contact",strongly stimulates
same,"Transglutaminase mRNA, Change (%) vs control",transglutaminase; 0.015%,+322%*
same,"Transglutaminase mRNA, Change (%) vs control",transglutaminase; 0.03%,+661%*
same,"Transglutaminase mRNA, Change (%) vs control",transglutaminase; 0.06%,+814%*
same,increase in mRNA coding for transglutaminase,transglutaminase; dose-dependent,8 fold
same,"Transglutaminase mRNA, Ct, result per 106 cells",transglutaminase; 0.015%,23.7 ± 0.3 amplification unit
same,"Transglutaminase mRNA, Ct, result per 106 cells",transglutaminase; 0.03%,22.9 ± 0.1 amplification unit
same,"Transglutaminase mRNA, Ct, result per 106 cells",transglutaminase; 0.06%,22.5 ± 0.3 amplification unit
same,Variation of the number of cells with regard to the control after a hyperosmotic stress (MTT),Keratinocytes; T0,+54%
same,Variation of the number of cells with regard to the control after a hyperosmotic stress (MTT),Keratinocytes; T24 h,+108%
same,Variation of the number of cells with regard to the control after a hyperosmotic stress (MTT),Keratinocytes; T48 h,+112%

# From patent US8377663B2, “Cosmetic composition comprising hydroxymethionine and 3-aminopropanesulfonic acid” (Sederma, S.A.S., priority 2007, dated 2013)
